Source: publication PMC11157491, “Novel Alaninamide Derivatives with Drug-like Potential for Development as Antiseizure and Antinociceptive Therapies—In Vitro and In Vivo Characterization” (ACS Chemical Neuroscience, 2024)

Columns and labels:
[1] = system: mice; assay: PTZ-induced kindling; format: in vivo; conditions: for percentage of fully kindled mice: PTZ 40 mg/kg; for mean seizure severity score: 40 mg/kg
Experimental: The percentage of fully kindled mice in the control group was 77%. […] These slight differences were not statistically significant as compared to the PTZ control group.
Data are shown as means of seizure severity ± SEM (n = 13–15 animals). The statistical significance was evaluated by a mixed-effect model for repeated measures followed by Tukey’s post hoc test: *p < 0.05, **p < 0.01, ***p < 0.001, and ****p < 0.0001 as compared to the control group (GraphPad Prism 8).
The procedure was performed as described in detail in our earlier studies.[15],[65] […] The seizure severity was scored using the modified Racine’s scale. […] 24 h after the last PTZ injection, animals were subjected to the locomotor activity test, the elevated plus maze test, and the forced swim test according to the methods described in detail elsewhere. After behavioral tests, animals were sacrificed and the brains were rapidly removed. Hippocampi and cortices were dissected, frozen, and stored at −80 °C until the assay of determination of GABA and glutamate concentration.
The mean seizure severity scores were calculated for all experimental groups after each PTZ injection and analyzed using a mixed-effect model for repeated measures with Tukey’s post hoc test. Fisher’s exact probability test was used to compare the percentage of fully kindled mice.

[2] = system: mature BDNF (mBDNF); assay: mBDNF and proNGF expression in hippocampus and cortex of PTZ-kindled mice (western blot); format: in vivo; conditions: PTZ-kindled animals, prolonged treatment
Experimental: In addition, we determined the expression of the nerve growth factor (NGF), which can also be implicated in kindling progression, by enhancing mossy fiber sprouting.[40] However, no changes in the NGF protein expression in the hippocampus and cortex of kindled animals were found (Figure 5C,D).
The expression of mBDNF and proNGF in the mouse hippocampus and cortex was evaluated by the western blot technique. Half of mouse brain structures, cortex and hippocampus, were weighted and homogenized at the ratio of 9 μL/mg in 2% sodium dodecyl sulfate (SDS) supplemented with a cocktail of protease (Thermo Scientific) and phosphatese inhibitors (Sigma-Aldrich) using a bead homogenizer (Bead Ruptor Elite, Omni International). Then, the samples were denatured at 95 °C for 10 min and centrifuged at 10,000g for 10 min at 4 °C. The total protein concentration in the obtained supernatants was determined using a PierceTM BCA Protein Assay Kit (Thermo Scientific, Waltham, MA). After setting the proper protein concentration, the samples were mixed with loading buffer (containing 10% 2-mercaptoethanol) at a ratio of 3:1 and heated for 10 min at 95 °C. Equal amounts of the protein (45 μg/lane) were loaded on Any kD precast polyacrylamide gels (Criterion, TGX Stain-Free gel, Bio-Rad, Hercules, CA) and subjected to electrophoresis (170 V, 60 min). Separated proteins were transferred to the polyvinylidene difluoride (PVDF) membrane (Bio-Rad, Hercules, CA) and were blocked in a 5% solution of albumin in TBST. […] The proteins were detected using the electrochemiluminescence (ECL) method (Western Bright Quantum, Advansta Inc., San Jose, CA). The chemiluminescence of the membranes was imaged with the G-Box Imaging System (Syngene, Frederick, MD), and the protein expression was analyzed with Gene Tools software (Syngene, Frederick, MD) and expressed as relative to the total protein content in the membrane lane.
Changes in the relative expression of tested proteins were analyzed using one-way ANOVA with Tukey’s post hoc test.

[3] = system: AMPA; assay: AMPA binding (agonist radioligand); conditions: 100 μM, rat cerebral cortex
Experimental: (§1) Binding/functional studies were carried out commercially in Eurofins Laboratories (Poitiers, France) and Eurofins Panlabs Discovery Services Taiwan, Ltd. (New Taipei City, Taiwan) using testing procedures that were reported previously (for details, see Table S2).
Table S2. Radioligand binding and functional assays. […]
AMPA (agonist radioligand) […]
(§2) Potassium channel (hERG) […]
(§3) Assays were performed commercially in Eurofins Laboratories ( Poitiers, France) or Eurofins Panlabs Discovery Services
(§4) Taiwan, Ltd. (New Taipei City, Taiwan).

[4] = system: NMDA; assay: NMDA binding (antagonist radioligand); conditions: 100 μM, rat cerebral cortex
Experimental: as §1
Table S2. Radioligand binding and functional assays.
NMDA (antagonist radioligand) […]
as §2, §3, §4

% inhibition of control specific binding [3]: –21.0%
% inhibition of control specific binding [4]: 5.0%
SMILES: CC(=O)NC(C)C(=O)N1CCN(c2cccc(OC(F)(F)F)c2)CC1 (stereo not drawn) [Compound 28, N-(1-oxo-1-(4-(3-(Trifluoromethoxy)phenyl)piperazin-1-yl)propan-2-yl)acetamide]
percentage of fully kindled mice ([1]; 10 mg/kg i.p. every 24 h): 71%
percentage of fully kindled mice ([1]; 20 mg/kg i.p. every 24 h): 73%
percentage of fully kindled mice ([1]; 40 mg/kg i.p. every 24 h): 47%
mean seizure severity score ([1]; after the first PTZ injection): 1.00 ± 0.00
mean seizure severity score ([1]; after the last PTZ injection): 3.40 ± 0.45
mBDNF expression in the cortex [2]: decreased the expression of mBDNF
mBDNF expression in the hippocampus [2]: not in the hippocampus
